Broadly, the half-life is the time in which the quantity being followed falls by half. A high value points to slow loss.

Structures are written as SMILES. *1 amine or outer side, *2 acyl side, *3 side chain or, on linkers, in order; H or OH if unused. Where a SMILES comes first, the peptide text is derived from it. Bridges are numbered along the chain shown (N, C = ends). [ ]: non-standard residue; d: D form. Phe(4-tBu) = CC(C)(C)c1ccc(C[C@H](N)C(=O)O)cc1; Bip = N[C@@H](Cc1ccc(-c2ccccc2)cc1)C(=O)O; NMeR = CN[C@@H](CCCNC(=N)N)C(=O)O; β3hE = N[C@@H](CCC(=O)O)CC(=O)O; X1 = O=C(c1ccccc1C[*:2])[*:1]; Pen = CC(C)(S)[C@H](N)C(=O)O Some results are limits rather than exact numbers.

In US20260217767A1, “NOVEL A4B7 THIOETHER PEPTIDE DIMER ANTAGONISTS” (Protagonist Therapeutics, Inc., priority 2014, published 2026) one finds half-life data, which are given here for six molecules.

The nature of the series: Simulated Intestinal Fluid (SIF) Stability Assay. The series is classed as in vitro ADME. The following applies: pig, 37° C., monomers, Table 6; for half-life at 22 μM: simulated intestinal fluid (SIF) with 1% porcine pancreatin, pH 6.5, porcine pancreatin; for half-life: porcine pancreatin. The essentials:
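Percent peptide remaining over time was measured by LC-MS/MS as the peak-area ratio to internal standard, and a first-order decay fit gave half-life. Digests contained 22 μM peptide and 1% pancreatin in pH 6.5 FaSSIF buffer at 37° C. Aliquots were quenched in organic solvent with formic acid.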

`CC(C)C[C@@H]1NC(=O)[C@H]([C@@H](C)O)NC(=O)[C@H](CC(=O)O)NC(=O)[C@H](CO)NC(=O)[C@H](CCCNC(=N)N)N(C)C(=O)c2ccccc2CSC(C)(C)[C@@H](C(=O)N[C@@H](Cc2cccc3ccccc23)C(=O)N[C@H](CCC(=O)O)C(=O)N(C)[C@@H](CCCCN)C(N)=O)NC1=O` [compound 69] (HELM PEPTIDE1{[meR].S.D.T.L.[Pen].[O=C([C@H](Cc1cccc2ccccc12)N[*:1])[*:2]].[dE].[meK].[am]}|CHEM1{[O=C(c1ccccc1C[*:2])[*:1]]}$PEPTIDE1,CHEM1,1:R1-1:R1|PEPTIDE1,CHEM1,6:R3-1:R2$$$V2.0) came in with a half-life at 22 μM above 3 h. On to `CC(C)C[C@@H]1NC(=O)[C@H]([C@@H](C)O)NC(=O)[C@H](CC(=O)O)NC(=O)[C@H](CO)NC(=O)[C@H](CCCNC(=N)N)N(C)C(=O)c2ccccc2CSC(C)(C)[C@@H](C(=O)N[C@@H](Cc2c[nH]c3ccccc23)C(=O)N[C@H](CCC(=O)O)C(=O)N[C@@H](CN)C(N)=O)NC1=O` [compound 94] (HELM PEPTIDE1{[meR].S.D.T.L.[Pen].W.[dE].[NC[C@H](N[*:1])C(=O)[*:2]].[am]}|CHEM1{[O=C(c1ccccc1C[*:2])[*:1]]}$PEPTIDE1,CHEM1,1:R1-1:R1|PEPTIDE1,CHEM1,6:R3-1:R2$$$V2.0), for which the half-life was above 3 h. Same read-out and setting: in the case of `CC(C)C[C@@H]1NC(=O)[C@H]([C@@H](C)O)NC(=O)[C@H](CC(=O)O)NC(=O)[C@H](CO)NC(=O)[C@H](CCCNC(=N)N)N(C)C(=O)c2ccccc2CSC(C)(C)[C@@H](C(=O)N[C@@H](Cc2c[nH]c3ccccc23)C(=O)N[C@H](CCC(=O)O)C(=O)N[C@@H](CCN)C(N)=O)NC1=O` [compound 95] (HELM PEPTIDE1{[meR].S.D.T.L.[Pen].W.[dE].[Dab].[am]}|CHEM1{[O=C(c1ccccc1C[*:2])[*:1]]}$PEPTIDE1,CHEM1,1:R1-1:R1|PEPTIDE1,CHEM1,6:R3-1:R2$$$V2.0) it was above 3 h.

As for `CC(C)C[C@@H]1NC(=O)[C@H]([C@@H](C)O)NC(=O)[C@H](CC(=O)O)NC(=O)[C@H](CO)NC(=O)[C@H](CCCNC(=N)N)N(C)C(=O)c2ccccc2CSC(C)(C)[C@@H](C(=O)N[C@@H](Cc2c[nH]c3ccccc23)C(=O)N[C@@H](CCC(=O)O)C(N)=O)NC1=O` [compound 96] (HELM PEPTIDE1{[meR].S.D.T.L.[Pen].W.E.[am]}|CHEM1{[O=C(c1ccccc1C[*:2])[*:1]]}$PEPTIDE1,CHEM1,1:R1-1:R1|PEPTIDE1,CHEM1,6:R3-1:R2$$$V2.0), the half-life at 22 μM was 0.433 h. Same read-out and setting: in the case of `CC(C)C[C@@H]1NC(=O)[C@H]([C@@H](C)O)NC(=O)[C@H](CC(=O)O)NC(=O)[C@H](CO)NC(=O)[C@H](CCCNC(=N)N)N(C)C(=O)c2ccccc2CSC(C)(C)[C@@H](C(=O)N[C@@H](Cc2ccc(-c3ccccc3)cc2)C(=O)N[C@@H](CCC(=O)O)CC(N)=O)NC1=O` [compound 133] ([NMeR]SDTL[Pen][Bip][β3hE]-NH2; linker N-6 via X1) it was above 3 h. The same measure, in the same setting: the same measure for `CC(C)C[C@@H]1NC(=O)[C@H]([C@@H](C)O)NC(=O)[C@H](CC(=O)O)NC(=O)[C@H](CO)NC(=O)[C@H](CCCNC(=N)N)N(C)C(=O)c2ccccc2CSC(C)(C)[C@@H](C(=O)N[C@@H](Cc2ccc(C(C)(C)C)cc2)C(=O)N[C@@H](CCC(=O)O)CC(N)=O)NC1=O` [compound 134] ([NMeR]SDTL[Pen][Phe(4-tBu)][β3hE]-NH2; linker N-6 via X1): above 3 h.
